Test results reported in patent US8921328B2, “E-selectin antagonists” (GlycoMimetics, Inc., priority 2010, dated 2014).

Biological target: T1, E-selectin/IgG construct (Homo sapiens, UniProt P16581)
T1 construct: fused on or other part: IgG Fc part (human, since it is captured by goat anti-human Fc antibody), fused on as a capture handle
T1 sequence (P16581 22-175 limits assumed): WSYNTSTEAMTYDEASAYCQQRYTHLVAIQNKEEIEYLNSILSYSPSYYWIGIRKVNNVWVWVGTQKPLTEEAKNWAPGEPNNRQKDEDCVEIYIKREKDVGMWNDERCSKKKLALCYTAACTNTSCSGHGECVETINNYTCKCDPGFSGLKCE
Experiment: BIAcore surface plasmon resonance (SPR)-based assay, serial dilutions of the ligand (absolute KD)
Details: twofold serial dilutions, 600 s association/600 s dissociation, HBS-P + 20 mm calcium + DMSO 5% v/v, read-out: KD values (absolute binding affinities)
Description: The biological evaluation of the E-selectin antagonists was performed by surface plasmon resonance (SPR). For this purpose, an E-selectin/IgG construct was captured onto a BIAcore chip surface bearing covalently linked goat anti-human Fc specific antibody (Biacore Life Sciences, Uppsala, Sweden).
Evaluation of E-Selectin Antagonists with Surface Plasmon Resonance (SPR)-Based Assay
Ten twofold serial dilutions of the ligand were non-randomly injected. The E-selectin antagonists were diluted in running buffer (HBS-P supplemented with […] calcium and DMSO 5% v/v). Antagonist dilutions were injected with a 600 s association time and 600 s dissociation time at a flow rate of 20 μL/min over the reference and the active flow cell. […] In addition, to prevent the presence of residual traces of compound, a blank injection was performed between each injection of ligand dilution. DMSO calibration and double referencing were applied to correct bulk effects and other systematic artifacts (subtraction of reference surface and blank injection).

SMILES: CC1CC(C(=O)NCCCN2CCN(CCCn3ccc4cc([N+](=O)[O-])ccc43)CC2)C[C@@H](O[C@@H]2OC(CO)[C@H](O)C(O[C@@H](CC3CCCCC3)C(=O)O)C2OC(=O)c2ccccc2)C1O[C@@H]1OC(C)[C@@H](O)C(O)C1O (stereo partly drawn) [Product 82, (1R,3R,4R,5S)-3-[2-O-Benzoyl-3-O-((1S)-1-carboxy-2-cyclohexyl-ethyl)-(β-D-galactopyranosyl)oxy]-4-[(α-L-fucopyranosyl)oxy]-5-methyl-N-(3-{1-[3-(5-nitro-1H-indol-1-yl)propyl]piperazin-1-yl}propyl)cyclohexanecarboxamide]
- Kd: 110 nM
